Test results taken from patent US7528274B2, “Acylthiols and component thiol compositions as anti-HIV and anti-retroviral agents” (The United States of America as represented by the …, priority 2001, dated 2009).
Where two headings read alike, the source gives them in different places.

Experiments:
HIV-1RF = assay: XTT cytoprotection assay, CEM-SS cells infected with HIV-1RF; format: cell-based; settings: for EC50: read-out: EC50 (50% cytoprotection)
Excerpt: (§1) One exemplary means to determine antiviral activity is with CEM-SS cells and virus (e.g., HIV-1RF) (MOI=0.01) using the XTT (2,3-bis[2-methoxy-4-nitro-5-sulfophenyl]-5-[(phenylamino)carbonyl]-2H-tetrazolium hydroxide) cytoprotection assay, as described by Rice (1993) PNAS 90:9721-9724, and Rice (1997) Antimicrob. Agents Chemother. […] Briefly, cells are infected with HIV-1RF (or other virus to be tested) in the presence of various dilutions of test compounds or control compounds. The cultures are incubated for seven days. […] The cell death is measured by XTT dye reduction. XTT is a soluble tetrazolium dye that measures mitochondrial energy output, similar to MTT. […] Individual assays are done in duplicate using a sister plate method.
as §1, with “{2,3-bis[2-methoxy-4-nitro-5-sulfophenyl]-5- -[(phenylamino)carbonyl]-2H-tetrazolium hydroxide}” for “(2,3-bis[2-methoxy-4-nitro-5-sulfophenyl]-5-[(phenylamino)carbonyl]-2H-tetrazolium hydroxide)”, “Proc. Natl. Acad. Sci. USA 90: 9721-9724,” for “PNAS 90:9721-9724,”, “Agents &” for “Agents”, “and controls.” for “or control compounds.”, “method. […] Compound numbers therein refer to the numbers used in FIG. 1.” for “method.”

[1] = XTT assay, cytotoxicity (cellular growth inhibition) in CEM-SS cells; format: cell-based; settings: human
Excerpt: as §1
as §1, with “{2,3-bis[2-methoxy-4-nitro-5-sulfophenyl]-5- -[(phenylamino)carbonyl]-2H-tetrazolium hydroxide}” for “(2,3-bis[2-methoxy-4-nitro-5-sulfophenyl]-5-[(phenylamino)carbonyl]-2H-tetrazolium hydroxide)”, “Proc. Natl. Acad. Sci. USA 90: 9721-9724,” for “PNAS 90:9721-9724,”, “Agents &” for “Agents”, “and controls.” for “or control compounds.”, “method. […] Compound numbers therein refer to the numbers used in FIG. 1.” for “method.”

[2] = Human immunodeficiency virus 1, 168 h, HIV-1RF, CEM-SS cells, seven days, XTT

Row | Compound | Therapeutic Index (HIV-1RF; HIV-1RF, CEM-SS cells) | EC50 (HIV-1RF; [2]) [µM] | IC50 at 7 days [1] [µM] | EC50 (HIV-1RF; Human immunodeficiency virus 1, CEM-SS, 168 h) [µM]
1 | CCCCNC(=O)Sc1ccccc1C(=O)NCCS(N)(=O)=O [Compound 130] | 0.12 | 304 | 37 | –
2 | Cc1cc(C)c(C(=O)Sc2ccccc2C(=O)NCCC(N)=O)c(C)c1 [Compound 24] | – | – | > 200 | –
3 | CSC(=N)Sc1ccccc1C(=O)NCC(N)=O [Compound 138] | 31.7 | 0.63 | 20 | –
4 | CC(C)COC(=O)Sc1ccc(Cl)cc1C(=O)NCCC(N)=O [Compound 141] | 17.7 | 1.13 | 20 | –
5 | NC(=O)CNC(=O)c1ccccc1SC(=O)OCCCCCl [Compound 80] | 65 | 3.07 | 200 | –
6 | COc1cccc(C(=O)Sc2ccccc2C(=O)NCCC(N)=O)c1 [Compound 14] | 251 | 2.6 | 666 | –
7 | C[C@@H](NC(=O)c1ccccc1SC(=O)NCCCCl)C(N)=O [Compound 87] | 16 | 0.71 | 11.4 | –
8 | CC(C)COC(=O)Sc1ccccc1C(=O)N[C@H](C)C(N)=O [Compound 77] | 168 | 1.37 | 230 | –
9 | CSC(=N)Sc1ccccc1C(=O)N[C@@H](C)C(N)=O [Compound 136] | 28.6 | 0.7 | 20 | –
10 | COc1ccccc1C(=O)Sc1ccccc1C(=O)NCCC(N)=O [Compound 9] | 298 | 2.7 | 790 | –
11 | CCCCNC(=O)Sc1ccccc1C(=O)NCCC(N)=O [Compound 118] | 74 | 0.53 | 38.7 | –
12 | NC(=O)CCNC(=O)c1ccccc1SC(=O)NCCBr [Compound 111] | 10 | – | 4.9 | 0.48
13 | CCCCNC(=O)Sc1ccccc1C(=O)N[C@H](C)C(N)=O [Compound 117] | 64 | 0.51 | 32.2 | –
14 | COc1ccc(C(=O)Sc2ccccc2C(=O)NCCC(N)=O)cc1 [Compound 13] | 11 | 3.7 | 42 | –
15 | CCNC(=O)Sc1ccccc1C(=O)NCCC(N)=O [Compound 113] | 148 | 0.69 | 103 | –
16 | NC(=O)CNC(=O)c1ccccc1SC(=O)OCCBr [Compound 101] | 232 | 1.36 | > 316 | –
17 | CCC(C)C(NC(=O)c1ccccc1SC(=O)OCCCCCl)C(N)=O (stereo not shown) [Compound 83] | 59 | 2.16 | 128 | –
18 | C[C@@H](NC(=O)c1ccccc1SC(=O)OCCBr)C(N)=O [Compound 103] | 76 | 3.34 | 254 | –
19 | NS(=O)(=O)c1ccc(CNC(=O)c2ccccc2SC(=O)OCCCCCl)cc1 [Compound 84] | 27 | 2.36 | 64.4 | –
20 | CCCNC(=O)Sc1ccccc1C(=O)N[C@@H](C)C(N)=O [Compound 96] | 21 | 1.32 | 27.5 | –
21 | CCCNC(=O)Sc1ccccc1C(=O)N[C@H](C)C(N)=O [Compound 95] | 27 | 0.85 | 22.6 | –
22 | C[C@H](NC(=O)c1ccccc1SC(=O)OCCBr)C(N)=O [Compound 104] | 160 | 1.16 | 186 | –
23 | NC(=O)CCNC(=O)c1ccc(Cl)cc1SC(=O)Cc1ccccc1 [Compound 26] | 14 | 2.5 | 35 | –
24 | NS(=O)(=O)c1ccc(CNC(=O)c2ccccc2SC(=O)NCCCCl)cc1 [Compound 88] | 19 | 0.48 | 9 | –
25 | CCCCCNC(=O)Sc1ccccc1C(=O)N[C@H](C)C(N)=O [Compound 119] | 179 | 0.3 | 54.4 | –
26 | CC(C)(C)NC(=O)Sc1ccccc1C(=O)NCC(N)=O [Compound 142] | 2.9 | 6.9 | 20 | –
